Measured values: patent US6762198B2, “Dihetero-substituted metalloprotease inhibitors” (The Procter & Gamble Company, priority 1999, dated 2004)

Assays:
[1] = system: human subject suffering from rheumatoid arthritis; test: Example A: oral tablets in a human subject with rheumatoid arthritis; type: in vivo; conditions: human 60 kg, three tablets (15 mg compound each) per day orally for 2 years
Experimental: A tablet composition for oral administration, according to the present invention, is made comprising:
A human subject weighing 60 kg (132 lbs), suffering from rheumatoid arthritis, is treated by a method of this invention. Specifically, for 2 years, a regimen of three tablets per day is administered orally to said subject.

[2] = system: human subject suffering from osteoarthritis; test: Example B: oral capsule in a human subject with osteoarthritis; type: in vivo; conditions: human 90 kg, capsule containing 70 mg daily for 5 years
Experimental: A capsule for oral administration, according to the present invention, is made comprising:
A human subject weighing 90 kg (198 lbs.), suffering from osteoarthritis, is treated by a method of this invention. Specifically, for 5 years, a capsule containing 70 mg of the compound of Example 3 is administered daily to said subject.

[3] = system: patient having deep corneal abrasion; test: Example C: saline-based eye drop in a patient with deep corneal abrasion; type: in vivo, human; conditions: 5% w/w saline-based drop to each eye twice a day
Source text: A saline-based composition for local administration, according to the present invention, is made comprising:
A patient having deep corneal abrasion applies the drop to each eye twice a day.

[4] = system: patient suffering from chemical bums; test: Example D: topical composition in a patient with chemical burns; type: in vivo, human; conditions: 0.20% w/v topical composition at each dressing change (b.i.d.)
Source text: A topical composition for local administration, according to the present invention, is made comprising:
A patient suffering from chemical bums applies the composition at each dressing change (b.i.d.).

[5] = system: human subject with a premetastatic tumor; test: Example G: parenteral suspension in a human subject with a premetastatic tumor; type: in vivo; conditions: about 2.0 mL of 100 mg/mL suspension injected beside the tumor twice daily, after 30 days
Experimental: A composition for parenteral administration is made comprising:
The above ingredients are mixed, forming a suspension. Approximately 2.0 mL of the suspension is administered, via injection, to a human subject with a premetastatic tumor. The injection site juxtaposes the tumor. This dosage is repeated twice daily, for approximately 30 days.

[6] = system: asthma sufferer; test: Example E: inhalation aerosol in an asthma sufferer; type: in vivo, human; conditions: 0.01 mL of 5.0% w/v inhalation aerosol sprayed into the mouth while inhaling

With `COc1ccc(-c2ccc(S(=O)(=O)NC(CC(O)CSc3nccs3)C(=O)O)cc2)cc1` (stereo not drawn) [Example 1, 2-[(4′-Methoxy[1,1′-biphenyl]-4-yl)sulfonyl]amino-4-hydroxy-5-[(2-thiazolyl)thio]-pentanoic Acid] the “inflammation, mobility and pain at the end of the treatment period” value [1] was “reduced inflammation, and improved mobility without concomitant pain”.
With `O=C(O)C(CC(O)CSc1nccs1)NS(=O)(=O)c1ccc(-c2ccc(Oc3ccccc3)cc2)cc1` (stereo not drawn) [Example 3, 2-[(4′-Phenoxy[1,1′-biphenyl]-4-yl)sulfonyl]amino-4-hydroxy-5-[(2-thiazolyl)thio]pentanoic Acid] the “advancement of erosion/fibrillation of the articular cartilage (x-ray, arthroscopy and/or MRI)” value [2] was “no further advancement of erosion/fibrillation of the articular cartilage”.
For `Cc1ccc(C#Cc2ccc(S(=O)(=O)NC(CC(O)CSc3nccs3)C(=O)O)cc2)cc1` (stereo not drawn) [Example 10, 2-[[4-[(4-Methylphenyl)ethynyl]phenyl]sulfonyl]amino-4-hydroxy-5-[(2-thiazolyl)thio]-pentanoic Acid], the corneal healing [3] was “Healing is speeded, with no visual sequelae”.
With `COc1ccc(-c2ccc(S(=O)(=O)NC(CC(O)CNc3ccccc3)C(=O)O)cc2)cc1` (stereo not drawn) [Example 19, 2-[(4′-Methoxy[1,1′-biphenyl]-4-yl)sulfonyl]amino-4-hydroxy-5-(phenylamino)-pentanoic Acid] the scarring [4] was “Scarring is substantially diminished”.
For `COc1ccc(-c2ccc(S(=O)(=O)NC(CC(O)CSc3ncc[nH]3)C(=O)O)cc2)cc1` (stereo not drawn) [Example 22, 2-[(4′-Methoxy[1,1′-biphenyl]-4-yl)sulfonyl]amino-4-hydroxy-5[(2-imidazolyl)thio]-pentanoic Acid], the “symptoms of the disease” value [5] was “symptoms of the disease subside”.
In the case of `COc1ccc(-c2ccc(S(=O)(=O)NC(CC(O)CSc3n[nH]c(-c4ccccc4)n3)C(=O)O)cc2)cc1` (stereo not drawn) [Example 42, 2-[(4′-Methoxy[1,1′-biphenyl]-4-yl)sulfonyl]amino-4-hydroxy-5-[(5-phenyl-1H-1,2,4-triazol-3-yl)thio]-pentanoic Acid], the asthma symptoms [6] was “Asthma symptoms are diminished”.
